{
  "source": "patent US20170252433A1",
  "about": "“PSMA-RELATED THERAPIES” (Memorial Sloan Kettering Cancer Center, priority 2014, published 2017)",
  "key": {"[1]": {"system": "PSMA-expressing prostate cancer cells (LNCaP-wt, PC3-hPSMA) and PC3-wt", "test": "Cytoplasmic calcium quantification (Fluo4 assay)", "type": "cell-based, human", "procedure": "Cells were seeded at a density of 10,000 per well on a 96-well plate and grown overnight. Loading of the calcium-sensing dye Fluo4 (Life Technologies, Calrsbad, Calif.) was performed according to the manufacturer's instructions. Where indicated the cells were treated with thapsigargin (1 μM, Tocris, Minneapolis, Minn.), L-Quisqualic acid (110 μM, Tocris), 3,5-DHPG (0.67 mM, Tocris), L-AP3 (125 μM, Tocris), U73122 (50 μM, Tocris), and 2-PMPA (100 μM, Tocris) immediately before measuring calcium levels, with a SpectraMax M5 plate reader (Molecular Devices, Sunnyvale, Calif.).\nThe effect of PSMA expression on calcium homeostasis in prostate cancer cell lines was evaluated using the fluorimetric Fluo4 assay kit (Invitrogen), according to the supplier's instructions. The plate was excited at 490 nm, and fluorescence emission was monitored at 520 nm with the SpectraMax M5 plate reader (Molecular Devices). […] To examine calcium accumulation in the cytoplasm, the cells were treated with thapsigargin (1 μM, Tocris) immediately prior to taking measurements with the plate reader. […] Furthermore, we investigated whether PSMA facilitates calcium signaling via the mGluR Group I receptors through its enzymatic activity. The cells were treated with either L-Quisqualic acid (110 μM; mGluR I agonist, Tocris), L-AP3 (125 μM; mGluR I antagonist, Tocris) or a PSMA inhibitor (100 μM, Tocris), immediately prior to taking calcium measurements."}, "[2]": {"system": "phosphorylation of CAMKK2, AMPKα and AKT in PSMA-expressing and PSMA-negative (PC3-wt) cells", "test": "Phosphorylation status by isoelectric focusing (NanoPro)", "type": "cell-based, human", "conditions": "for CAMKK2 phosphorylation: 5 μM, 48 h, FIG. 3b", "procedure": "(§1) CAMKK2, AMPKα and AKT antibodies were purchased from Cell Signaling (Danvers, Mass.). Cells were grown to confluence and treated with 2-PMPA (5 μM, Tocris) for 48 h. The phosphorylation status of proteins of interest was determined with an isoelectric-focusing instrument (NanoPro1000, Protein Simple, Santa Clara, Calif.), where the samples were prepared and analyzed according to the supplier's guidelines. Determination of site-specific phosphorylation of key proteins was performed with a human phosphor-kinase array (ARY003, R&D Systems, Minneapolis, Minn.), according to the product's instructions.\nPhosphorylation state of calcium dependent downstream effectors was analyzed. Since activation of metabotropic glutamate receptors and their associated G proteins can lead to phosphorylation of downstream effectors, phosphorylation levels of key proteins relative to PSMA expression was examined. The NanoPro system from Protein Simple was used, which allowed the determination of global phosphorylation status based on the isoelectric point changes of the target protein. The samples were prepared according to the supplier's guidelines, following lysis of the cells with the NanoPro lysis buffer. All antibodies used were purchased from Cell Signaling, detecting the total protein levels of a target protein. […] (FIG. 3b). […] It has been previously shown that either G protein-activated PI3K or calcium-activated mTORC2 phosphorylating PAK can cause Akt's phosphorylation. All graphs depict mean±s.e.m."}, "[3]": {"system": "LNCaP-wt cells", "test": "Human phospho-kinase array (kinome profiling)", "type": "cell-based", "conditions": "48 h, 5 μM, FIG. 4a", "procedure": "as §1\nConsidering that PSMA inhibition affected the phosphorylation of some key kinases, a human kinome-profiling array from R&D Systems was utilized to obtain a wider view of other kinases being regulated by this protein. LNCaP-wt cells were grown in the presence of a PSMA inhibitor (48 h, 5 μM) and PC3-PSMA cells were grown under puromycin-induced selection. Control cells included LNCaP-wt and PC3-wt cells grown for 48 h in complete RPMI media. The cells were lysed and processed according to the array's protocol, and the array was performed according to its supplier's guideline. Imaging of the array's membranes was performed after film exposure in the presence of a chemiluniescent substrate and HRP-conjugated detecting antibodies, processed in a dark room."}, "[4]": {"system": "LNCaP-wt cells", "test": "Androgen receptor pathway output: secreted PSA (DELFIA PSA assay)", "type": "cell-based, human", "conditions": "5 μM, 48 h", "procedure": "Gene expression array was performed after TRIzol-based RNA extraction on an U133A 2.0 gene array (Affymetrix, Santa Clara, Calif.). The output of the androgen receptor (AR) pathway was assessed by measuring the levels of prostate specific antigen (PSA). LNCaP cells that have a functional AR pathway were obtained from ATCC (Manassas, Va.) and grown to confluence. Then they were treated for 48 h with 2-PMPA (5 μM) for 48 h, followed by screening of the culture medium for secreted PSA with the DELFIA PSA assay (Perkin Elmer, Waltham, Mass.). The levels of nitric oxide attributed to nitric oxide synthase's activity and the concentration of total secreted prostaglandins were quantified with the corresponding kits purchased from Cayman Chemicals (Ann Arbor, Mich.). Alterations in energy production due to signaling changes were determined through quantification of the intracellular NAD+ and ATP lelels, using the NAD assay from Cayman Chemicals (Ann Arbor, Mich.) and the StayBrite ATP kit from Biovision (Milpitas, Calif.).\nSince PSMA regulates Akt phosphorylation, it was investigated whether inhibition of PSMA and subsequent downregulation of Akt activity affected the status of the androgen receptor (AR) pathway. […]"}},
  "data": [
    {"smiles": "O=C(O)CCC(CP(=O)(O)O)C(=O)O", "note": "(stereo not drawn) [2-PMPA]", "values": [
      {"measurement": "cytoplasmic calcium levels", "setting": "[1]; PSMA inhibition compared with Phospholipase C inhibitor U73122 50 μM, FIG. 1d", "value": "reduction in calcium levels"},
      {"measurement": "cytoplasmic calcium levels", "setting": "[1]; PSMA-expressing cells, PSMA inhibitor 100 μM, L-AP3 125 μM, FIG. 1c", "value": "lowered calcium levels"},
      {"measurement": "CAMKK2 phosphorylation", "setting": "[2]; PSMA-expressing cells", "value": "decreased CAMKK2's phosphorylation"},
      {"measurement": "phosphorylation of AMPKα", "setting": "[2]; PSMA-positive cells, FIG. 3c", "value": "impaired"},
      {"measurement": "phosphorylation of AKT", "setting": "[2]; PSMA-positive cells, FIG. 3d", "value": "impaired"},
      {"measurement": "CAMKK2 phosphorylation", "setting": "[2]; cells lacking PSMA", "value": "no effect"},
      {"measurement": "phosphorylation of many proteins including TOR, p27, and Src", "setting": "[3]", "value": "decreased"},
      {"measurement": "PSA mRNA levels", "setting": "[4]", "value": "did not affect PSA's mRNA levels"},
      {"measurement": "PSA levels in culturing medium", "setting": "[4]; FIG. 5a", "value": "increased PSA levels"}
    ]}
  ]
}
